Values after ≈ are worked out from the molar mass of the structure shown.
How the values were obtained:
[1] = Solubility measurement in water by HPLC, external standard method; type: physicochemical
Description: 3. Solubility Measurement in Water
The measurement was carried out by HPLC using an external standard method.

[2] = Stability of crystalline forms on storage at 40° C. for 20 days, purity by HPLC; type: physicochemical; details: for Purity after storage in the thermostatically controlled containers for 20 days / Purity before storage: HPLC
Description: Crystalline forms II, III, IV and VI are respectively placed in a thermostatically controlled container at 40° C. for 20 days. The stability of the said crystalline forms is assessed by high performance liquid chromatography.
Chromatographic conditions: octadecylsilane bonded silica as filler; a mixed solution of 10 mM/L phosphate buffer (adjusted to pH 7.0 by sodium hydroxide) and acetonitrile in 2:7 by volume as mobile phase; column temperature 40° C.; detection wavelength 220 nm. The purity is determined using an internal standard method.
The crystalline forms II, III, IV and VI were formulated with the mobile phase as 1 mg/mL solution. 10 μL of each of the solution was removed and injected into the liquid chromatograph. The chromatograms were recorded.
The assay was carried out using an external standard method as described under Purity Measurement of the Sample.

SMILES	Solubility compared with the existing crystalline forms [1]	solubility ([1]; HPLC) [µg/mL]	Stability compared with the existing crystalline forms ([2]; 40° C., 20 days)	Purity after storage in the thermostatically controlled containers for 20 days ([2]; 40° C., 20 days) [%]	Purity before storage [2] [%]
COc1ccc2cccc(CCNC(C)=O)c2c1 [crystalline form VI, N-[2-(7-methoxy-1-naphthyl)ethyl]acetamide]	superior	1240 (≈ 5.1 mM)	superior	99.55	99.60
COc1ccc2cccc(CCNC(C)=O)c2c1 [crystalline form II, N-[2-(7-methoxy-1-naphthyl)ethyl]acetamide]				99.24	99.79
COc1ccc2cccc(CCNC(C)=O)c2c1 [crystalline form III, N-[2-(7-methoxy-1-naphthyl)ethyl]acetamide]				99.10	99.77
COc1ccc2cccc(CCNC(C)=O)c2c1 [crystalline form IV, N-[2-(7-methoxy-1-naphthyl)ethyl]acetamide]				99.54	99.82

Reference: patent US8614251B2, “Crystalline form VI of agomelatine, preparation method and application thereof” (Les Laboratories Servier, priority 2009, dated 2013)
